The record followed here is patent US10173991B2, “Sulfone amide linked benzothiazole inhibitors of endothelial lipase” (BRISTOL-MYERS SQUIBB COMPANY, priority 2014, dated 2019).

Chain of Endothelial lipase (EL) (Q9Y5X9 21-500): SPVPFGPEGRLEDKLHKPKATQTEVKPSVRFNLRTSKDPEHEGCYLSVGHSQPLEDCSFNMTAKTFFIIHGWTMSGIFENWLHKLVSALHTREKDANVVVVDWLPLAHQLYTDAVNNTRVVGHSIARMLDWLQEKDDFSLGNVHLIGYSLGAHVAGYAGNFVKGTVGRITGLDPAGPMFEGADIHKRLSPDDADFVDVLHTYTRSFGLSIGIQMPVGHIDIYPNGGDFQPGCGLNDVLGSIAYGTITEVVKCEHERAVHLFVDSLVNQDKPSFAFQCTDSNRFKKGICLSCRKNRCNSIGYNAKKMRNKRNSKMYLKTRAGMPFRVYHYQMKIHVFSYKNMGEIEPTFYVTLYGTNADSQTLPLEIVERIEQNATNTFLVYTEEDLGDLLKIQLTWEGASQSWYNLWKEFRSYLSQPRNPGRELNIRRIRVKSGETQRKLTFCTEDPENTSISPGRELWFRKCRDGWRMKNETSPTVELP

The target of this test is Endothelial lipase (EL) (Homo sapiens (Human), UniProt Q9Y5X9). Briefly: Endothelial lipase (EL) enzymatic assay with fluorescent substrate A10070 in DMPG vesicles. Type of test: biochemical. In short, it runs like this:
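EL from conditioned medium of HT-1080 cells engineered to overexpress endogenous EL; HL partially purified from conditioned medium of HL-overexpressing COS cells. Enzyme preincubated with compound 30 min at 37° C in 50 mM HEPES pH 8.0, 50 mM NaCl, 1 mM CaCl2; DMPG vesicles carrying FRET substrate (0.11 mole fraction) then added.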
In general, IC50 refers to the concentration at which inhibition is half-maximal. Consider `Cc1ncc(-c2cc(C)c3nc(C(C(=O)NCC(=O)NC4CC4)S(=O)(=O)c4ccc(F)cc4)sc3c2)cn1` (stereo not shown) [Example 469, N-[(cyclopropyl-carbamoyl)methyl]-2-(4-fluorobenzene-sulfonyl)-2-[4-methyl-6-(2-methylpyrimidin-5-yl)-1,3-benzothiazol-2-yl]acetamide], for which half-maximal inhibition (IC50) required 0.041 µM.
For the molecule `COCCS(=O)(=O)C(C(=O)NCC(=O)NC1CC1)c1nc2cc(C(=O)OC(C)(C)C)c(F)cc2s1` (stereo not shown) [Example 428, tert-butyl 2-({[(cyclopropyl-carbamoyl)methyl]carbamoyl}(2-methoxyethane-sulfonyl)methyl)-6-fluoro-1,3-benzothiazole-5-carboxylate], the IC50 stood at 0.012 µM.
Consider `COCCS(=O)(=O)C(C(=O)NCC(=O)NC1CC1)c1nc2cc(F)c(-c3ccc4c(c3)CNC4=O)cc2s1` (stereo not shown) [Example 150, N-[(cyclopropyl-carbamoyl)methyl]-2-[5-fluoro-6-(1-oxo-2,3-dihydro-1H-isoindol-5-yl)-1,3-benzothiazol-2-yl]-2-(2-methoxyethane-sulfonyl) acetamide], for which half-maximal inhibition (IC50) was put at 0.002 µM.
Consider `COCCS(=O)(=O)C(C(=O)NCC(=O)NC1CC1)c1nc2cc(F)c(-c3ccc(-c4nn[nH]n4)cc3)cc2s1` (stereo not shown) [Example 146, N-[(cyclopropyl-carbamoyl)methyl]-2-{5-fluoro-6-[4-(2H-1,2,3,4-tetrazol-5-yl)phenyl]-1,3-benzothiazol-2-yl}-2-(2-methoxyethane-sulfonyl)acetamide], for which the IC50 worked out at 0.006 µM.
To `O=C(CNC(=O)C(c1nc2ccc(-c3ccc(F)nc3)cc2s1)S(=O)(=O)Cc1ccc(OC(F)(F)F)cc1)NC1CC1` (stereo not shown) [Example 513, N-[(cyclopropyl-carbamoyl)methyl]-2-[6-(6-fluoropyridin-3-yl)-1,3-benzothiazol-2-yl]-2-{[4-(trifluoromethoxy)phenyl]methanesulfonyl} acetamide] belongs 0.02 µM; to `CC(=O)Nc1cccc(-c2cc3sc(C(C(=O)NCC(=O)NC4CC4)S(C)(=O)=O)nc3cc2F)c1` (stereo not shown) [Example 116, N-[(cyclopropyl-carbamoyl)methyl]-2-[6-(3-acetamidophenyl)-5-fluoro-1,3-benzothiazol-2-yl]-2-methanesulfonyl-acetamide], 0.017 µM.
Regarding `COCCS(=O)(=O)C(C(=O)NCC(=O)NC1CC1)c1nc2cc(F)c(-c3cnc(C)nc3)cc2s1` (stereo not shown) [Example 156, N-[(cyclopropyl-carbamoyl)methyl]-2-[5-fluoro-6-(2-methylpyrimidin-5-yl)-1,3-benzothiazol-2-yl]-2-(2-methoxyethane-sulfonyl) acetamide], the IC50 amounted to 0.011 µM.
`COCCS(=O)(=O)C(C(=O)NCC(=O)NC1CC1)c1nc2cc(-c3cnc(C4CC4)nc3)c(F)cc2s1` (stereo not shown) [Example 348, N-[(cyclopropyl-carbamoyl)methyl]-2-[5-(2-cyclopropyl-pyrimidin-5-yl)-6-fluoro-1,3-benzothiazol-2-yl]-2-(2-methoxyethane-sulfonyl)acetamide] gave a 50% inhibitory concentration (IC50) of 0.01 µM.
Then `O=C(CNC(=O)C(c1nc2ccc(-c3cncnc3)cc2s1)S(=O)(=O)c1ccccc1)NC1CC1` (stereo not shown) [Example 432, 2-(benzenesulfonyl)-N-[(cyclopropyl-carbamoyl)methyl]-2-[6-(pyrimidin-5-yl)-1,3-benzothiazol-2-yl]acetamide], with 0.061 µM.
Molecule `Cc1cc(F)ncc1-c1cc2sc(C(C(=O)NCC(=O)NC3CC3)S(C)(=O)=O)nc2cc1F` (stereo not shown) [Example 319, N-[(cyclopropyl-carbamoyl)methyl]-2-[5-fluoro-6-(6-fluoro-4-methylpyridin-3-yl)-1,3-benzothiazol-2-yl]-2-methanesulfonyl-acetamide] had an IC50 of 0.015 µM.
Consider `CCOc1ccc(-c2ccc3nc(C(C(=O)NCC(=O)NC4CC4)S(=O)(=O)CCOC)sc3c2)cn1` (stereo not shown) [Example 299, N-[(cyclopropyl-carbamoyl)methyl]-2-[6-(6-ethoxypyridin-3-yl)-1,3-benzothiazol-2-yl]-2-(2-methoxyethane-sulfonyl)acetamide], for which the IC50 is 0.118 µM.
`COCCS(=O)(=O)C(C(=O)NCC(=O)NC1CC1)c1nc2cc(-c3cccnc3)ccc2s1` (stereo not shown) [Example 85, N-[(cyclopropyl-carbamoyl)methyl]-2-(2-methoxyethane-sulfonyl)-2-[5-(pyridin-3-yl)-1,3-benzothiazol-2-yl]acetamide] returned an IC50 of 0.085 µM.
`CC(C)S(=O)(=O)C(C(=O)NCC(=O)NC1CC1)c1nc2cc(F)c(-c3ccc(C#N)nc3)cc2s1` (stereo not shown) [Example 249, 2-[6-(6-cyanopyridin-3-yl)-5-fluoro-1,3-benzothiazol-2-yl]-N-[(cyclopropyl-carbamoyl)methyl]-2-(propane-2-sulfonyl)acetamide] displayed an IC50 of 0.029 µM.
Regarding `CS(=O)(=O)C(C(=O)NCC(=O)NC1CC1)c1nc2cc(-c3ccc(F)nc3)ccc2s1` (stereo not shown) [Example 333, N-[(cyclopropyl-carbamoyl)methyl]-2-[5-(6-fluoropyridin-3-yl)-1,3-benzothiazol-2-yl]-2-methanesulfonyl-acetamide], 0.013 µM corresponded to half-maximal inhibition (IC50).
`COCCNC(=O)c1cccc(-c2ccc3sc(C(C(=O)NCC(=O)NC4CC4)S(=O)(=O)CCOC)nc3c2)c1` (stereo not shown) [Example 400, 3-[2-({[(cyclopropyl-carbamoyl)methyl]carbamoyl}(2-methoxyethane-sulfonyl)methyl)-1,3-benzothiazol-5-yl]-N-(2-methoxyethyl) benzamide] had an IC50 of 0.009 µM.
For `COCCS(=O)(=O)C(C(=O)NCC(=O)NC1CC1)c1nc2ccc(-c3ccc(N(C)C(=O)OC)cc3)cc2s1` (stereo not shown) [Example 25, methyl N-{4-[2-({[(cyclopropyl-carbamoyl)methyl]carbamoyl}(2-methoxyethane-sulfonyl)methyl)-1,3-benzothiazol-6-yl]phenyl}-N-methylcarbamate], the IC50 was 0.007 µM.
Regarding `COCCS(=O)(=O)C(C(=O)NCC(=O)NC1CC1)c1nc2cc(C(F)(F)F)c(-c3ccnn3C)cc2s1` (stereo not shown) [Example 162, N-[(cyclopropyl-carbamoyl)methyl]-2-(2-methoxyethane-sulfonyl)-2-[6-(1-methyl-1H-pyrazol-5-yl)-5-(trifluoromethyl)-1,3-benzothiazol-2-yl]acetamide], the IC50 is 0.016 µM.
Then `CN(C)S(=O)(=O)C(C(=O)NCC(=O)NC1CC1)c1nc2c(F)cc(-c3cccc(-n4cccn4)c3)cc2s1` (stereo not shown) [Example 505, N-[(cyclopropyl-carbamoyl)methyl]-2-(dimethyl-sulfamoyl)-2-{4-fluoro-6-[3-(1H-pyrazol-1-yl)phenyl]-1,3-benzothiazol-2-yl}acetamide], with 0.13 µM; and `COCCNC(=O)c1ccc(-c2ccc3nc(C(C(=O)NCC(=O)NC4CC4)S(=O)(=O)c4ccccc4)sc3c2)cc1` (stereo not shown) [Example 431, 4-{2-[(benzenesulfonyl) ({[(cyclopropyl-carbamoyl)methyl]carbamoyl})methyl]-1,3-benzothiazol-6-yl}-N-(2-methoxyethyl) benzamide], with 0.003 µM; and `Cc1ccc(-c2cc3sc(C(C(=O)NCC(=O)NC4CC4)S(C)(=O)=O)nc3cc2F)cn1` (stereo not shown) [Example 191, N-[(cyclopropyl-carbamoyl)methyl]-2-[5-fluoro-6-(6-methylpyridin-3-yl)-1,3-benzothiazol-2-yl]-2-methanesulfonyl-acetamide], with 0.009 µM.
On to `COCCS(=O)(=O)C(C(=O)NCC(=O)NC1CC1)c1nc2cc(-c3cncc(Cl)c3)ccc2s1` (stereo not shown) [Example 62], for which the IC50 is 0.005 µM.
On to `O=C(CNC(=O)C(c1nc2ccc(-c3ccnc(O)c3)cc2s1)S(=O)(=O)c1ccc(F)cc1)NC1CC1` (stereo not shown) [Example 599, N-[(cyclopropyl-carbamoyl)methyl]-2-(4-fluorobenzene-sulfonyl)-2-[6-(2-hydroxypyridin-4-yl)-1,3-benzothiazol-2-yl]acetamide], for which half-maximal inhibition (IC50) was put at 0.027 µM.
For the molecule `CS(=O)(=O)C(C(=O)NCC(=O)NC1CC1)c1nc2cc(F)c(-c3ccccc3)cc2s1` (stereo not shown) [Example 609, N-[(cyclopropyl-carbamoyl)methyl]-2-(5-fluoro-6-phenyl-1,3-benzothiazol-2-yl)-2-methanesulfonyl-acetamide], the midpoint of inhibition, the IC50, lay at 0.002 µM.
Molecule `COCCS(=O)(=O)C(C(=O)NCC(=O)NC1CC1)c1nc2cc(F)c(-c3ccc(NC(=O)OCc4nccs4)cc3)cc2s1` (stereo not shown) [Example 524, 1,3-thiazol-2-ylmethyl N-{4-[2-({[(cyclopropyl-carbamoyl)methyl]carbamoyl}(2-methoxyethane-sulfonyl)methyl)-5-fluoro-1,3-benzothiazol-6-yl]phenyl} carbamate] displayed an IC50 of 0.013 µM.
The molecule `COCCS(=O)(=O)C(C(=O)NCC(=O)NC1CC1)c1nc2ccc(-c3ccc(COC)cc3)cc2s1` (stereo not shown) [Example 308, N-[(cyclopropyl-carbamoyl)methyl]-2-(2-methoxyethane-sulfonyl)-2-{6-[4-(methoxymethyl)phenyl]-1,3-benzothiazol-2-yl}acetamide] registered an IC50 of 0.027 µM.
To `COCCS(=O)(=O)C(C(=O)NCC(=O)NCCOC(C)C)c1nc2cc(-c3ccc(=O)n(C)c3)c(F)cc2s1` (stereo not shown) [Example 355, 2-[6-fluoro-5-(1-methyl-6-oxo-1,6-dihydropyridin-3-yl)-1,3-benzothiazol-2-yl]-2-(2-methoxyethane-sulfonyl)-N-({[2-(propan-2-yloxy)ethyl]carbamoyl}methyl)acetamide] belongs 0.036 µM; to `COCCS(=O)(=O)C(C(=O)NCC(=O)NC1CC1)c1nc2ccc(-c3cccnc3Cl)cc2s1` (stereo not shown) [Example 297, 2-[6-(2-chloropyridin-3-yl)-1,3-benzothiazol-2-yl]-N-2-(2-methoxyethane-sulfonyl)acetamide], 0.085 µM; to `COCCS(=O)(=O)C(C(=O)NCC(=O)NC1CC1)c1nc2cc(-c3cccnc3C)ccc2s1` (stereo not shown) [Example 91, N-[(cyclopropyl-carbamoyl)methyl]-2-(2-methoxyethane-sulfonyl)-2-[5-(2-methylpyridin-3-yl)-1,3-benzothiazol-2-yl]acetamide], 0.018 µM.
